Data set [1] deals with HeLa (human cervix adenocarcinoma) cells. Nature of the data set: Resazurin-based cytotoxicity assay on a mammalian cell line. Conditions: 20 μM, Figure S2. The procedure:
(§1) HeLa cells were grown and maintained in a culture medium comprised of Dulbecco’s Modified Eagle’s Medium (DMEM) with 5 mM L-glutamine (Lonza, Basel, Switzerland), supplemented with 10% (v/v) heat inactivated foetal bovine serum and antibiotics (penicillin/streptomycin/fungizone-PSF) in a humidified chamber at 37 °C with an atmosphere of 5% CO2. To carry out passaging of cells, cultures were treated with 1% trypsin (w/v) to lift cells, which were then washed in 1 × phosphate buffered saline (PBS) before being re-seeded into culture flasks. For assessment of the cytotoxic effects, the small molecules were added to HeLa cells at a fixed concentration of 20 μM. After an incubation period of 24 h, the number of cells surviving drug exposure were determined using a resazurin-based cytotoxicity assay. The resazurin-based cytotoxicity assay was conducted as previously mentioned. Results were expressed as % cell—the resorufin fluorescence in small molecule-treated wells relative to untreated controls. Assessment of each small molecule was conducted in duplicate, with error bars representing standard deviation (SD).

A further data set deals with T1, TbHsp70 (Trypanosoma brucei brucei, UniProt P11145).
T1 construct: His-tag; made in house; host or cells: Escherichia coli
T1 sequence (P11145 whole entry): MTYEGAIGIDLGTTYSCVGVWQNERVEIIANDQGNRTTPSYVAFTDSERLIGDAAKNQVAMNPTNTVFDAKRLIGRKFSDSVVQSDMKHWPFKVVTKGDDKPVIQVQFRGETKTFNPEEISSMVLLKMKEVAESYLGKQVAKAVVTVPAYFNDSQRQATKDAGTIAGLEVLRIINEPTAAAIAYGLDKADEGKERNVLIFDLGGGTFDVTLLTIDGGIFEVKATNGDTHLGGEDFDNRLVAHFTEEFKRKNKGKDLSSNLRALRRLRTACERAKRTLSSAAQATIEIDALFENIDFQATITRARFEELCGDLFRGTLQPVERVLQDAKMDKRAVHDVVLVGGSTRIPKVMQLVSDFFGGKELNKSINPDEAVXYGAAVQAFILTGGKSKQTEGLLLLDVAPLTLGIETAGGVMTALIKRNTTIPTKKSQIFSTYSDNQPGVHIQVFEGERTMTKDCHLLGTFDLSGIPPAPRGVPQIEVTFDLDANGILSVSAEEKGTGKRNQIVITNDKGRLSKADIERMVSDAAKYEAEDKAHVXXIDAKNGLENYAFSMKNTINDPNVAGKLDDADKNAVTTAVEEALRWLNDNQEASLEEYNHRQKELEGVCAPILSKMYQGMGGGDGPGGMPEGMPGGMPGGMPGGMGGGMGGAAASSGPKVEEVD
Nature of the data set: Basal ATPase activity assay, TbHsp70. It is filed as biochemical. How it is done:
(§2) The determination of the ATPase activity of the Hsp70 proteins was performed using the high throughput colorimetric ATPase assay kit (Innova Biosciences, Cambridge, UK). This method enables the quantification of the inorganic phosphate (Pi) released from ATP hydrolysis by an enzyme. Briefly, the molecular chaperones were prepared in ATPase assay buffer (100 mM Tris-HCl, 7.5, 2 mM MgCl2, 50 mM KCl, 0.5 mM DTT) and incubated with ATP (0–2 mM) for 1 h at 37 °C. […] The samples containing Pi hydrolysed from ATP were incubated with the PiColorLock™ solution, which is a malachite green dye solution that in the presence of Pi changes absorbance due to generation of molybdate-phosphate complexes. The absorbance was measured at 595 nm using a Powerwave 96-well plate reader (BioTek Instruments, Inc., Winooski, VT, USA), and absorbance values were converted to phosphate concentrations using a standard curve of absorbance vs. phosphate concentration based on a set of Pi standards provided by the supplier assayed along with the samples. All samples were corrected for spontaneous breakdown of ATP observed in a control experiment in the absence of protein. The trypanosomal and human Hsp70s were used at 0.8 μM, and the J-proteins were used at 0.4 μM. An initial screen of the modulatory effects of the compounds on the ATPase activity of the Hsp70s was conducted using 300 μM of the compounds. […]

Another data set concerns the target T2, TbHsp70 / Tbj2 (Trypanosoma brucei brucei, UniProt P11145).
T2 construct: His-tag; made in house; host or cells: Escherichia coli (Tbj2: E. coli BL21 (DE3))
Nature of the data set: Tbj2-stimulated ATPase activity assay, TbHsp70. Type of data set: biochemical. The settings on record: TbHsp70, 150 μM, Figure 5A. How it is done:
(§3) The determination of the ATPase activity of the Hsp70 proteins was performed using the high throughput colorimetric ATPase assay kit (Innova Biosciences, Cambridge, UK). This method enables the quantification of the inorganic phosphate (Pi) released from ATP hydrolysis by an enzyme. Briefly, the molecular chaperones were prepared in ATPase assay buffer (100 mM Tris-HCl, 7.5, 2 mM MgCl2, 50 mM KCl, 0.5 mM DTT) and incubated with ATP (0–2 mM) for 1 h at 37 °C. […] The samples containing Pi hydrolysed from ATP were incubated with the PiColorLock™ solution, which is a malachite green dye solution that in the presence of Pi changes absorbance due to generation of molybdate-phosphate complexes. The absorbance was measured at 595 nm using a Powerwave 96-well plate reader (BioTek Instruments, Inc., Winooski, VT, USA), and absorbance values were converted to phosphate concentrations using a standard curve of absorbance vs. phosphate concentration based on a set of Pi standards provided by the supplier assayed along with the samples. All samples were corrected for spontaneous breakdown of ATP observed in a control experiment in the absence of protein. The trypanosomal and human Hsp70s were used at 0.8 μM, and the J-proteins were used at 0.4 μM. An initial screen of the modulatory effects of the compounds on the ATPase activity of the Hsp70s was conducted using 300 μM of the compounds. Compounds identified to have a modulatory effect on the basal and J-protein-stimulated ATPase activity of Hsp70 were used at varying concentrations. The modulatory effect of the selected compounds on the basal and J-protein stimulated ATPase activity of the T. brucei Hsp70s was represented as fold change with the basal and J-protein stimulated ATPase activity of the Hsp70s taken as 1 respectively. These experiments were conducted on three independently purified batches of proteins, but due to limited availability of the selected compounds, each assay was conducted in duplicate on each batch of protein. In control reactions to evaluate the effect of DMSO on basal and J-protein stimulated ATPase activity of the Hsp70s, the solvent was added to a final concentration of 1% (v/v) in the assay. The assays were performed in duplicate on three independently purified batches of proteins.

In data set [2] the test system is bloodstream form T. b. brucei parasites. Nature of the data set: Resazurin-based anti-trypanosomal assay on bloodstream form T. b. brucei parasites. It is filed as cell-based, Trypanosoma brucei brucei. Conditions: Trypanosoma brucei. How it is done:
Bloodstream form T. b. brucei Lister 927 variant 221 strain parasites were cultured in filter sterilized complete Iscoves Modified Dulbeccos Media (IMDM) based HM1-9 medium (IMDM base powder, […] sodium bicarbonate, 1 mM hypoxanthine, 1 mM sodium pyruvate, 0.16 mM thymidine, 0.05 mM bathocuprone sulphate acid, 10% (v/v) heat inactivated foetal bovine serum, 1.5 mM L-cysteine, 0.2 mM β-mercaptoethanol, pH 7.5) in a humidified chamber at 37 °C with an atmosphere of 5% CO2. Parasite growth was monitored using a Neubauer haemocytometer to count the cell number, after which cells were diluted, according to their density, in the described pre-warmed media.
All compounds of interest were resuspended to stocks of 30 mM in DMSO and stored at −80 °C prior to use in in vitro experiments. For assessment of anti-trypanosomal activity, compounds were added to in vitro cultures of bloodstream form T. b. brucei parasites (1 × 10^5 cells/mL) in 96-well plates at a fixed concentration of 20 μM. After an incubation period of 48 h, the number of parasites surviving drug exposure were determined using a resazurin-based cytotoxicity assay. Resazurin is an oxidation–reduction sensitive dye that is reduced by living cells to resorufin. Resorufin is a fluorophore (Excitation560/Emission590) and thus was quantified in a multi-well fluorescence plate reader. Results are expressed as % parasite viability—the resorufin fluorescence in small molecule-treated wells relative to untreated controls. Assessment of each small molecule was conducted in duplicate, with error bars representing standard deviation (SD). […] The compounds were added to in vitro cultures of bloodstream form T. b. brucei parasites (1 × 10^5 cells/mL) in 96-well plates in a 3-fold dilution series with 100 μM as the highest concentration. After an incubation period of 48 h, the number of parasites surviving drug exposure were determined as previously mentioned. The % parasite viability was determined as previously mentioned. The IC50 (the concentration of compound required to decrease cell viability of T. b. brucei parasites by 50% compared to those grown in the absence of the compound) values for each of the compounds were determined from a dose–response curve by non-linear regression generated using GraphPad Prism® (v. 7.0; San Diego, CA, USA) software. For comparative purposes, pentamidine at a fixed concentration of 1 μM was employed as a drug standard.
On the technique in general: Alamar Blue is a resazurin reagent that responds to reducing activity.

For another data set, the system named is TbHsp70.4. Nature of the data set: Basal ATPase activity assay, TbHsp70.4. Conditions: TbHsp70.4, 1 μM. It is filed as biochemical, Trypanosoma brucei. How it is done: as §2
In the next data set the test system is TbHsp70.4 / Tbj2. Nature of the data set: Tbj2-stimulated ATPase activity assay, TbHsp70.4. It is filed as biochemical, Trypanosoma brucei. Conditions: TbHsp70.4, 150 μM, Figure 5B. How it is done:
as §3

Data set [3] is described as follows: Resazurin-based cytotoxicity assay on a mammalian cell line. The arrangement: species or system human. Conditions: human; HeLa cells, 10 μM. How it is done:
as §1

The next data set relates to plasmodial Hsp70s. More on the design: method as in PMID 24854538. Conditions: cited from earlier work.
For a further data set, the system named is human Hsp70. The arrangement: method as in PMID 24854538. Conditions: cited from earlier work.
The subject of another data set is P. falciparum. The arrangement: method as in PMID 21426241. The settings on record: read-out: IC50 against P. falciparum; cited from earlier work.
A further data set has as its system PfHsp70-1. More on the design: method as in PMID 21426241. Conditions: cited from earlier work.
A further data set has as its system c-Met kinase. The arrangement: method as in PMID 23081922. The settings on record: 10 μM; cited from earlier work.
The next data set addresses phosphodiesterase-4D. The arrangement: method as in PMID 24473168. Conditions: read-out: IC50 against phosphodiesterase-4D; cited from earlier work.
Where [4] appears, read: T. b. brucei parasites, stated as bound, read-out: IC50 values.
Setting [5] is: Table 1, T. b. brucei parasites cultured in vitro, 48 h, dose-response, read-out: IC50/μM.
The mark [6] stands for this setting: Table S1, 48 select compounds, T. b. brucei, 48 h, read-out: IC50/.

Where two headings read alike, the source gives them in different places. Bounds are passed on as bounds.

T2 sequence (P11145 whole entry): as above

For the compound `CC(C)=CCC/C(C)=C/Cn1cnc(=N)c2ncn(C/C=C(\C)CCC=C(C)C)c21` [Compound 5, 3,9-bis((E)-3,7-dimethylocta-2,6-dien-1-yl)-3,9-dihydro-6H-purin-6-imine], the “toxicity to HeLa cells” value in data set [1] is listed as “toxic”. As usually defined, the inhibition is how much of the control response was suppressed. The low end stands for a weak effect, the high end for a strong effect. For the compound `CC(C)=CCC/C(C)=C/CCC(C)=CCn1cnc2c(cnn2CC=C(C)CC/C=C(\C)CCC=C(C)C)c1=O` [Compound 47, 1,5-Bis((6E)-3,7,11-trimethyldodeca-2,6,10-trien-1-yl)-1,5-dihydro-4H-pyrazolo[3,4-d]pyrimidin-4-one], 1 µM produced 44% inhibition on TbHsp70 (TbHsp70, 1 μM). The “effect of order of addition (compound vs Tbj2) on inhibition of J-stimulated ATPase activity” value on TbHsp70 / Tbj2 and with TbHsp70.4 / Tbj2 was “no significant difference” in each case. Also, the IC50 in data set [2] (setting [4]) was under 7 µM; in data set [2] (setting [5]), 1.2 µM; in data set [2] (setting [6]), 1.23 µM. Further, the “inhibition of basal ATPase activity” value with TbHsp70.4 is listed as 66%. The compound `CC(C)=CCC/C(C)=C/Cn1ccc(=NC=O)n(C/C=C(\C)CCC=C(C)C)c1=O` [Compound 60, N-(-1,3-Bis((E)-3,7-dimethylocta-2,6-dien-1-yl)-2-oxo-2,3-dihydropyrimidin-4(1H)-ylidene)formamide] displayed an inhibition at 300 µM against TbHsp70 (TbHsp70, 300 μM, Figure S6) of 39%. For the same compound, the figures for the IC50 in data set [2] (setting [4]), in [2] (setting [5]) and in [2] (setting [6]) were under 7 µM, 4.9 µM and 4.89 µM, respectively. For `CC(C)=CCC/C(C)=C/Cn1ccc(=N)n(C/C=C(\C)CCC=C(C)C)c1=O` [Compound 61, 1,3-bis((E)-3,7-dimethylocta-2,6-dien-1-yl)-4-imino-3,4-dihydropyrimidin-2(1H)-one], the “toxicity to HeLa cells” value in data set [1] is listed as “toxic”.

On to `CC(C)=CCC/C(C)=C/CCC(C)=CCn1ccc(=NC=O)n(CC=C(C)CC/C=C(\C)CCC=C(C)C)c1=O` [Compound 62, N-(-2-Oxo-1,3-bis((6E)-3,7,11-trimethyldodeca-2,6,10-trien-1-yl)-2,3-dihydropyrimidin-4(1H)-ylidene)formamide], for which, in [1], the “toxicity to HeLa cells” value was “toxic”. In general, viability refers to the share of living cells, or the viability signal relative to a control. Turning to `CC[C@H]1CN2CCc3cc(OC)c(OC)cc3[C@@H]2C[C@@H]1C[C@H]1NCCc2cc(OC)c(OC)cc21` [Emetine, reference compound], the viability at 24 h, 10 µM in data set [3] stood at 6.03%. With `C/C(=C/C(=O)CC(C)C)CCC/C(C)=C/CC/C(C)=C/Cn1cnc2c1c(=O)ncn2C` [malonganenone A], the “effect on steady-state and J-protein stimulated ATPase activity” value in the data set with plasmodial Hsp70s is reported as “inhibited”; in the data set with human Hsp70, “not that of human Hsp70”. In addition, the IC50 with P. falciparum is 0.81 µM. As to `CNC(=O)c1c(N(C)C=O)ncn1C/C=C(\C)CC/C=C(\C)CCC/C(C)=C\C(=O)CC(C)C` [malonganenone B], the “activity against PfHsp70-1” value in the data set with PfHsp70-1 is on record as “dose-dependent”. For the compound `C/C(=C/C(=O)CC(C)C)CCC/C(C)=C/CC/C(C)=C/CNC=O` [malonganenone C], the IC50 in the data set on P. falciparum is 5.2 µM. As for `C/C(=C\CC/C(C)=C/Cn1cnc2c1c(=O)ncn2C)CC/C=C(\C)CC(=O)CC(C)C` [malonganenone D], the “reduction of c-Met kinase activity” value in the data set with c-Met kinase is 2 fold. On to `CC(C)=CC(=O)C/C(C)=C/CC/C(C)=C/CC/C(C)=C/Cn1cnc2c1c(=O)ncn2C` [malonganenone L], for which the IC50 on phosphodiesterase-4D was 8.5 µM. Take `CNC(=O)c1c(N(C)C=O)ncn1C/C=C(\C)CC/C=C(\C)CCC/C(C)=C\C(=O)C=C(C)C` [malonganenone Q]: the IC50 at phosphodiesterase-4D was 20.3 µM.

Values taken from article PMC7074166, “Screening for Small Molecule Modulators of Trypanosoma brucei Hsp70 Chaperone Activity Based upon Alcyonarian Coral-Derived Natural Products” (Marine Drugs, 2020).
